Series [1] concerns SHANK3 autism mouse model. Briefly: Compulsive behavior in SHANK3 autism mouse model. Format: in vivo. An excerpt: FIGS. 5 and 6 present data collected by experiments using a SH3 And Multiple Ankyrin Repeat Domains 3 (SHANK3) autism mouse model. SHANK3 was the first to be associated with autism which was used by Joao Peca et al. (2011) to create the mouse model currently in use. […] The SHANK family of proteins has been strongly implicated as a contributing factor in autism in certain individuals and sits at the core of the alleged autistic pathway. The SHANK proteins lie at the heart of this synaptic map of autistic pathology, binding to Metabotropic Glutamate Receptors (mGluRs) indirectly, via the Homer family of adaptor proteins, and to both N-methyl-D-aspartate receptors (NMDARS) and Neuroligins (NLGNs) indirectly, via guanylate kinase-associated protein (GKAP) and Postsynaptic density protein 95 (PSD-95). They also link to the actin cytoskeleton, providing a multivalent scaffold upon which to build the postsynaptic density.
Compulsive behavior was used as a readout to evaluate the effectiveness of autistic symptom amelioration through NMN treatment. […] A baseline was recorded for both groups. The effect of a placebo was evaluated for both groups. NMN was administered to subjects of each group and the results were recorded. The results of treatment with NMN over 1 week were also recorded.

The subject of a further series is OCD mouse models. The note with it: 3 different mouse models; cited from earlier work.

For the compound `NC(=O)c1ccc[n+]([C@@H]2O[C@H](COP(=O)([O-])O)[C@@H](O)[C@H]2O)c1` [NMN, nicotinamide mononucleotide], in series [1] (SHANK3 autistic group and control group, NMN administered, also NMN over 1 week, FIG. 5), the “compulsive behavior in seconds observed over a 5-minute period” value was “significantly reducing the exhibition of compulsive behavior”. For the same compound, in series [1] (SHANK3 mouse model, NMN treatment), the safety of treatment result is listed as “SAFE”.

On to `O=C(O)C(Cc1c[nH]c2ccccc12)N1C(=O)c2ccccc2C1=O` (stereo not drawn) [RG108], for which the “treating OCD” value with OCD mouse models is reported as “successful in treating OCD”.

These data come from patent US20230330122A1, “PHARMACOLOGICAL TREATMENT OF AUTISM SPECTRUM DISORDER” (priority 2022, published 2023).
